Assay results published in US8012970B2, “Derivatives of 1-{[1,5-bis(4-chlorophenyl)-2-methyl-1H-pyrrol-3-yl]methyl}-4-methylpiperazine, synthesis process and uses thereof” (priority 2005, dated 2011).
≈ marks a conversion by molar mass, not a printed value. Read-outs that look alike come from different tables or passages of the source.

Tests used:
Assay type in all cases: cell-based
M. tuberculosis 103471 = test: Antimycobacterial activity, MIC in Middlebrook 7H9 broth (NCCLS procedure); conditions: for M. tuberculosis 103471 MIC: extracellular M. tuberculosis 103471; for MIC: Mycobacterium tuberculosis, 103471, read-out: M. tuberculosis 103471 MIC (μg/mL)
M. smegmatis 103599 = test: Antimycobacterial activity toward atypical mycobacteria, MIC in broth
M. marinum 6423 = test: as above
VERO cells = test: Cytotoxicity on Vero cell monolayers (MNTD50); conditions: maximum 50% non-toxic dose, 5 days
Experimental: The cytotoxicity was evaluated on Vero cell monolayers (ICN-Flow). They were inoculated in 6-well plates each containing 9×10^4 cells and incubated in DMEM with 5% FCS for 24 h at 37° C. in a 5% CO2 incubator. After 24 h of culture, the medium was changed and a new medium containing decreasing doses of the substances under study was added.
After 5 days, the cells were trypsinized and counted in a Neubauer chamber under a light microscope. All the tests were done in triplicate. The maximum 50% non-toxic dose (MNTD50) was defined as the drug concentration that decreased cell multiplication less than 50% with respect to the control.

M. avium 103317 = test: Antimycobacterial activity toward atypical mycobacteria, MIC in broth
[1] = Mycolicibacterium smegmatis, 103599; read-out: MIC (μg/mL) M. smegmatis 103599
[2] = Mycobacterium marinum, 6423; read-out: MIC (μg/mL) M. marinum 6423
[3] = Mycobacterium avium, 103317; read-out: MIC (μg/mL) M. avium 103317

Structure (SMILES)	M. tuberculosis 103471 MIC (M. tuberculosis 103471) [µg/mL]	MIC (μg/mL) M. smegmatis 103599 (M. smegmatis 103599) [µg/mL]	MIC (μg/mL) M. marinum 6423 (M. marinum 6423) [µg/mL]	MNTD50 (μg/mL) VERO cells (VERO cells) [µg/mL]	MIC (μg/mL) M. avium 103317 (M. avium 103317) [µg/mL]	MIC (M. tuberculosis 103471) [µg/mL]	MIC (M. smegmatis 103599; [1]) [µg/mL]	MIC (M. marinum 6423; [2]) [µg/mL]	MIC (M. avium 103317; [3]) [µg/mL]	MIC (M. smegmatis 103599; Mycolicibacterium smegmatis, 103599, read-out: MIC (μg/mL) M. smegmatis 103599) [µg/mL]	MIC (M. marinum 6423; Mycobacterium marinum, 6423, read-out: MIC (μg/mL) M. marinum 6423) [µg/mL]	MIC (M. avium 103317; Mycobacterium avium, 103317, read-out: MIC (μg/mL) M. avium 103317) [µg/mL]
Cc1c(CN2CCSCC2)cc(-c2ccc(F)cc2)n1-c1cccc2ccccc12 [Compound 7k]	4	>16	16 (≈ 38.4 µM)	2	8 (≈ 19.2 µM)	–	–	–	–	–	–	–
Cc1c(CN2CCN(C)CC2)cc(-c2ccc(F)cc2F)n1-c1ccc(F)cc1 [Compound 6j]	4	>16	>16	8	16 (≈ 40.1 µM)	–	–	–	–	–	–	–
Cc1c(CN2CCSCC2)cc(-c2ccc(F)cc2)n1-c1ccccc1Cl [Compound 7a]	2	>16	>16	8	>16	–	–	–	–	–	–	–
Cc1c(CN2CCN(C)CC2)cc(-c2ccc(Cl)cc2)n1-c1ccc(Cl)cc1 [BM212, 1-{[1,5-bis(4-chlorophenyl)-2-methyl-1H-pyrrol-3-yl]methyl}-4-methylpiperazine]	–	–	–	4	–	0.7 (≈ 1.69 µM)	25 (≈ 60.3 µM)	100 (≈ 241 µM)	0.4 (≈ 0.965 µM)	–	–	–
Cc1c(CN2CCN(C)CC2)cc(-c2ccc(F)cc2)n1-c1ccc(F)cc1F [Compound 7j]	16	>16	16 (≈ 40.1 µM)	16	16 (≈ 40.1 µM)	–	–	–	–	–	–	–
Cc1c(CN2CCN(C)CC2)cc(-c2ccc(F)cc2)n1-c1ccc(Cl)cc1Cl [Compound 7h]	4	>16	8 (≈ 18.5 µM)	2	4 (≈ 9.25 µM)	–	–	–	–	–	–	–
Cc1c(CN2CCSCC2)cc(-c2ccc(F)cc2F)n1-c1ccc(F)cc1 [Compound 6i]	0.5	>16	16 (≈ 39.8 µM)	16	16 (≈ 39.8 µM)	–	–	–	–	–	–	–
[H]/N=C(/N)N[C@H]1[C@H](O)[C@@H](O)[C@H](O[C@@H]2O[C@@H](C)[C@](O)(C=O)[C@H]2O[C@@H]2O[C@@H](CO)[C@H](O)[C@@H](O)[C@@H]2NC)[C@@H](N/C(N)=N\[H])[C@@H]1O [Streptomycin, reference compound]	–	–	–	>64	–	0.5 (≈ 0.86 µM)	8 (≈ 13.8 µM)	32 (≈ 55 µM)	8 (≈ 13.8 µM)	–	–	–
Cc1c(CN2CCN(C)CC2)cc(-c2ccccc2Cl)n1-c1ccc(F)cc1 [Compound 6b]	8	>16	>16	2	16 (≈ 40.2 µM)	–	–	–	–	–	–	–
Cc1c(CN2CCSCC2)cc(-c2ccccc2Cl)n1-c1ccc(F)cc1 [Compound 6a]	4	>16	>16	4	16 (≈ 39.9 µM)	–	–	–	–	–	–	–
Cc1c(CN2CCSCC2)cc(-c2ccccc2F)n1-c1ccc(F)cc1 [Compound 6c]	0.5	>16	>16	16	16 (≈ 41.6 µM)	–	–	–	–	–	–	–
NNC(=O)c1ccncc1 [Isoniazid, reference compound]	–	–	–	32	–	0.25 (≈ 1.82 µM)	–	–	–	64 (≈ 467 µM)	16 (≈ 117 µM)	32 (≈ 233 µM)
Cc1c(CN2CCN(C)CC2)cc(-c2ccc(Cl)cc2Cl)n1-c1ccc(F)cc1 [Compound 6h]	8	>16	>16	16	2 (≈ 4.63 µM)	–	–	–	–	–	–	–
Cc1ccc(-c2cc(CN3CCN(C)CC3)c(C)n2-c2ccc(F)cc2)cc1 [Compound 6f]	4	8 (≈ 21.2 µM)	>16	8	4 (≈ 10.6 µM)	–	–	–	–	–	–	–
Cc1c(CN2CCN(C)CC2)cc(-c2cccc3ccccc23)n1-c1ccc(F)cc1 [Compound 6l]	16	>16	16 (≈ 38.7 µM)	4	8 (≈ 19.3 µM)	–	–	–	–	–	–	–
Cc1c(CN2CCN(C)CC2)cc(-c2ccccc2F)n1-c1ccc(F)cc1 [Compound 6d]	16	>16	>16	4	>16	–	–	–	–	–	–	–
Cc1c(CN2CCN(C)CC2)cc(-c2ccc(F)cc2)n1-c1ccccc1Cl [Compound 7b]	4	>16	>16	8	>16	–	–	–	–	–	–	–
Cc1ccc(-n2c(-c3ccc(F)cc3)cc(CN3CCSCC3)c2C)cc1 [Compound 7e]	4	16 (≈ 42 µM)	8 (≈ 21 µM)	8	8 (≈ 21 µM)	–	–	–	–	–	–	–
Cc1ccc(-n2c(-c3ccc(F)cc3)cc(CN3CCN(C)CC3)c2C)cc1 [Compound 7f]	16	>16	8 (≈ 21.2 µM)	8	16 (≈ 42.4 µM)	–	–	–	–	–	–	–
Cc1c(CN2CCSCC2)cc(-c2cccc3ccccc23)n1-c1ccc(F)cc1 [Compound 6k]	>16	>16	>16	>128	>16	–	–	–	–	–	–	–
Cc1c(CN2CCSCC2)cc(-c2ccc(Cl)cc2Cl)n1-c1ccc(F)cc1 [Compound 6g]	2	>16	>16	64	4 (≈ 9.19 µM)	–	–	–	–	–	–	–
Cc1c(CN2CCSCC2)cc(-c2ccc(F)cc2)n1-c1ccc(F)cc1F [Compound 7i]	2	>16	16 (≈ 39.8 µM)	16	16 (≈ 39.8 µM)	–	–	–	–	–	–	–
Cc1c(CN2CCN(C)CC2)cc(-c2ccc(F)cc2)n1-c1cccc2ccccc12 [Compound 7l]	4	>16	8 (≈ 19.3 µM)	4	8 (≈ 19.3 µM)	–	–	–	–	–	–	–
Cc1c(CN2CCN(C)CC2)cc(-c2ccc(F)cc2)n1-c1ccccc1F [Compound 7d]	8	0.3 (≈ 0.786 µM)	>16	8	16 (≈ 41.9 µM)	–	–	–	–	–	–	–
Cc1c(CN2CCSCC2)cc(-c2ccc(F)cc2)n1-c1ccc(Cl)cc1Cl [Compound 7g]	1	16 (≈ 36.7 µM)	8 (≈ 18.4 µM)	4	2 (≈ 4.59 µM)	–	–	–	–	–	–	–
